Test results published in patent publication US5849735A, “Tricyclic benzazepine vasopressin antagonists” (American Cyanamid Company, priority 1995, dated 1998).

Assays:
[1] = molecular target: T1, vasopressin V2 receptor (rat kidney medullary) (Rattus norvegicus, UniProt Q00788); assay: Binding Assay to Rat Kidney Medullary V2 Receptors
T1 construct: Medullary tissues from rat kidneys are dissected out; from tissue; host or cells: rat kidney medulla membranes
Experimental: Binding Assay to Rat Kidney Medullary V2 Receptors
Medullary tissues from rat kidneys are dissected out, cut into small pieces and soaked in a […] sodium chloride solution containing 1.0 mM EDTA with many changes of the liquid phase, until the solution is clear of blood. […] The tissue is homogenized in a 0.25M sucrose solution containing 1.0 mM EDTA and 0.1 mM PMSF using a Potter-Elvehjem homogenizer with a teflon pestle. The homogenate is filtered through several layers (4 layers) of cheese cloth. The filtrate is rehomogenized using a dounce homogenizer, with a tight fitting pestle. The final homogenate is centrifuged at 1500×g for 15 min. The nuclear pellet is discarded and the supernatant fluid recentrifuged at 40,000×g for 30 min. The resulting pellet formed contains a dark inner part with the exterior, slightly pink. The pink outer part is suspended in a small amount of 50.0 mM Tris.HCl buffer, pH 7.4. The protein content is determined by the Lowry's method (Lowry et al., J. Biol. Chem., 1953). The membrane suspension is stored at -70° C., in 50.0 mM Tris.HCl, containing 0.2% inactivated BSA and 0.1 mM PMSF in aliquots of 1.0 ml containing 10.0 mg protein per ml of suspension until sue in subsequent binding experiments.
For binding experiments, the following is added in ml volume to wells of a 96 well format of a microtiter plate: 100.0 ml of 100.0 mM Tris.HCl buffer containing 0.2% heat inactivated BSA, 10.0 mM MgCL2 and a mixture of protease inhibitors: leupeptin, 1.0 mg %; aprotinin, 1.0 mg % 1,10-phenanthroline, 2.0 mg %; trypsin inhibitor, and 0.1 mM PMSF, 20.0 ml of [^3 H] Arginine^8, vasopressin (S.A. 75.0 Ci/mmole) at 0.8 nM and the reaction initiated by the addition of 80.0 ml of tissue membranes (200.0 mg tissue protein). The plates are left undisturbed on the bench top for 120 minutes to reach equilibrium. Non-specific binding is assessed in the presence of 1.0 mM of unlabeled ligand, added in 20 ml volume. For test compounds, these are solubilized in 50% dimethylsulfoxide (DMSO) and added in 20.0 ml volume to a final incubation volume of […]. Upon completion of binding, the content of each well is filtered off, using a Brandel® cell Harvester (Gaithersburg, Md.). The radioactivity trapped on the filter disk by the ligand-receptor complex is assessed by liquid scintillation counting in a Parkard LS Counter, with an efficiency of 65% for tritium.

[2] = molecular target: T2, oxytocin receptor (rat uteri) (Rattus norvegicus, UniProt P70536); assay: Oxytocin Receptor Binding; set-up: species or system rat (Sprague-Dawley); conditions: for IC50: [3H]oxytocin displacement
T2 construct: The uteri are dissected out, cleaned of fat and connective tissues; from tissue; host or cells: uteri of diethylstilbestrol-treated female Sprague-Dawley rats
T2 sequence (P70536 1-388): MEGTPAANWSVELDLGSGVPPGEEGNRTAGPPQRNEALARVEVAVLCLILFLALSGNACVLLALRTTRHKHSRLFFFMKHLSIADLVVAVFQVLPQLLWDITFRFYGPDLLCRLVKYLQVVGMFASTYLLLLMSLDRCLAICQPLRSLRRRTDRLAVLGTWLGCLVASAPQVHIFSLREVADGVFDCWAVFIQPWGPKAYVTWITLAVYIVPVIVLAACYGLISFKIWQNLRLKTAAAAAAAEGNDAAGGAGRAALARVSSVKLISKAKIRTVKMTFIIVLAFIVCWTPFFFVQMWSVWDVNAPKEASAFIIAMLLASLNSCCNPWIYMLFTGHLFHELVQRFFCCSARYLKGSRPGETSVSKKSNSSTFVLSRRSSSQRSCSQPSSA
Experimental: Oxytocin Receptor Binding
Female Sprague-Dawley rats weighing approximately 200-250 g are injected intramuscularly (i.m.) with 0.3 mg/kg of body weight of diethylstilbestrol (DES). The rats are sacrificed 18 hours later under pentobarbital anesthesia. The uteri are dissected out, cleaned of fat and connective tissues and rinsed in 50 ml of normal saline. The tissue pooled from six rats is homogenized in 50 ml of […] Tris. HCl, containing 0.5 mM dithiothreitol and 1.0 mM EDTA, adjusted to pH 7.4, using a polytron at setting 6 with three passes of 10 sec each. The homogenate is passed through two (2) layers of cheesecloth and the filtrate centrifuged at 1000×g for 10 minutes. The clear supernatant is removed and recentrifuged at 165,000×g for 30 minutes. The resulting pellet containing the oxytocin receptors is resuspended in 50.0 mM Tris.HCl containing 5.0 mM MgCl2 at pH 7.4, to give a protein concentration of 2.5 mg/ml of tissue suspension. This preparation is used in subsequent binding assays with [^3 H]oxytocin.
Binding of 3,5-[^3 H]Oxytocin ([^3 H]OT) to its receptors is done in microtiter plates using [^3 H]OT, at various concentrations, in an assay buffer of 50.0 mM Tris.HCI, pH 7.4 and containing 5.0 mM MgCl2, and a mixture of protease inhibitors: BSA, 0.1 mg; aprotinin, 1.0 mg; 1,10-phenanthroline, 2.0 mg; […], 10.0 mg; and PMSF, 0.3 mg per 100 ml of buffer solution. Non-specific binding is determined in the presence of 1.0 uM unlabeled OT. The binding reaction is terminated after 60 minutes, at 22° C., by rapid filtration through glass fiber filters using a Brandel® cell harvester (Biomedical Research and Development Laboratories, Inc., Gaithersburg, Md.). Competition experiments are conducted at equilibrium using 1.0 nM [^3 H]OT and varying the concentration of the displacing agents. The concentrations of agent displacing 50% of [^3 H]OT at its sites (IC50) are calculated by a computer assisted LUNDON-2 program (LUNDON SOFTWARE INC., Ohio, USA).

[3] = molecular target: T3, vasopressin V1 receptor (rat liver plasma membranes) (Rattus norvegicus, UniProt P30560); assay: Binding Assay to Rat Hepatic V1 Receptors
T3 construct: Rat liver plasma membranes expressing the vasopressin V1 receptor subtypes; from tissue; host or cells: rat liver plasma membranes
Experimental: Binding Assay to Rat Hepatic V1 Receptors
Rat liver plasma membranes expressing the vasopressin V1 receptor subtypes are isolated by sucrose density gradient according to the method described by Lesko et al., (1973). These membranes are quickly suspended in 50.0 mM Tris.HCl buffer, pH 7.4, containing 0.2% bovine serum albumin (BSA) and 0.1 mM phenylmethylsulfonylfluoride (PMSF) and kept frozen at -70° C. until used in subsequent binding experiments. For binding experiments, the following is added to the wells of a ninety-six well format microtiter plate: […] of […] buffer containing 10.0 mM MgCl2, 0.2% heat inactivated BSA and a mixture of protease inhibitors: leupeptin, 1.0 mg %; aprotinin, 1.0 mg %; 1,10-phenanthroline,2.0 mg %; trypsin inhibitor, 10.0 mg % and 0.1 mM PMSF, 20.0 ml of [phenylalanyl-3,4,5, -^3 H] vasopressin (S.A. 45.1 Ci/mmole) […], and the reaction initiated by the addition of 80 ml of tissue membranes containing 20 mg of tissue protein. The plates are kept undisturbed on the bench top at room temperature for 120 min. to reach equilibrium. Non-specific samples are assayed in the presence of 0.1 mM of the unlabeled […] phenylalanylvasopressin, added in 20.0 ml volume.
For test compounds, these are solubilized in 50% dimethylsulfoxide (DMSO) and added in 20.0 ml volume to a final incubation volume of […]. Upon completion of binding, the content of each well is filtered off, using a Brandel® cell Harvester (Gaithersburg, Md.). The radioactivity trapped on the filter disk by the ligand-receptor complex is assessed by liquid scintillation counting in a Packard LS Counter, with an efficiency of 65% for tritium.

T3 sequence (P30560 whole entry): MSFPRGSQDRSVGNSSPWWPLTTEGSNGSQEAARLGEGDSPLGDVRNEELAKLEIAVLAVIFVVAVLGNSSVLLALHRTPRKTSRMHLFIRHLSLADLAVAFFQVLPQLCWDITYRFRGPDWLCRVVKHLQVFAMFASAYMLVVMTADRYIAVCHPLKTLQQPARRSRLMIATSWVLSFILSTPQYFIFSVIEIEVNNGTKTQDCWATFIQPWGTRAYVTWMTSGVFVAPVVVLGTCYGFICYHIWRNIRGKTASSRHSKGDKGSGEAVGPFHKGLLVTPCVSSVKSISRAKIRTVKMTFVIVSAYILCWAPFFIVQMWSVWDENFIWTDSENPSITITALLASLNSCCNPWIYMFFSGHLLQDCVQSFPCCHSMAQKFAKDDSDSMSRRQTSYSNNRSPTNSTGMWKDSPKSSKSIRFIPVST
T1 sequence (Q00788 whole entry): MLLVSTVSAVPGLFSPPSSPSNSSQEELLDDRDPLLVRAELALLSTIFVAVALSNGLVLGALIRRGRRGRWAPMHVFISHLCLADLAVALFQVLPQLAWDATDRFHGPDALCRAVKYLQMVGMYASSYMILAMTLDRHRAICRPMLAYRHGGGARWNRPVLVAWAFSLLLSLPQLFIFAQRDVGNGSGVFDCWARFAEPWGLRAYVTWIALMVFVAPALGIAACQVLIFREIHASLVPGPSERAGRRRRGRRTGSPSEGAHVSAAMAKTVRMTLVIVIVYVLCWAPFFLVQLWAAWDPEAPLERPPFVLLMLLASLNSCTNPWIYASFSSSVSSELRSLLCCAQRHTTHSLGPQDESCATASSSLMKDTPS

IC50 ([1]; rat kidney medullary V2 receptors)	inhibition at 1 µM [2]	IC50 ([3]; rat hepatic V1 receptors)	V2 % ([1]; rat kidney V2, "at μM" (concentration not given))	IC50 [2]	inhibition at 10 µM [2]	inhibition at 1 µM ([3]; 2 h, rat hepatic V1)	inhibition at 10 µM ([1]; rat kidney V2, at 10 μM)	inhibition at 10 µM ([3]; 2 h, rat hepatic V1, at 10 μM)	inhibition at 1 µM ([1]; rat kidney V2, at 1 μM)	Structure (SMILES)
54 nM	12%	240 nM	–	–	–	–	–	–	–	Cc1ccc(F)cc1C(=O)Nc1ccc(C(=O)N2Cc3ccccc3Oc3ccccc32)cn1 [Example 1, N-[5-(Dibenz[b,f][1,4]oxazepin-10(11H)-ylcarbonyl)-2-pyridinyl]-5-fluoro-2-methylbenzamide]
–	–	–	90%	610 nM	76%	100%	–	–	–	O=C(Nc1ccc(C(=O)N2Cc3ccccc3Cc3ccccc32)cn1)c1ccccc1-c1ccccc1 [Example 12, N-[5-[(6,11-Dihydro-5H-dibenz[b,e]azepin-5-yl)carbonyl]-2-pyridinyl][1,1'-biphenyl]-2-carboxamide]
–	37%	–	–	–	–	–	16%	10%	–	O=C(c1ccccc1)c1ccc(C(=O)N2Cc3ccccc3CCc3ccccc32)cc1 [Example 33, 5-(4-Benzoylbenzoyl)5,6,11,12-tetrahydrodibenz[b,f]azocine]
–	–	–	–	113 nM	94%	100%	–	–	39%	O=C(c1ccc(-c2ccccc2)cc1)N1Cc2ccccc2Nc2ccccc21 [Example 25]
